Test results taken from patent US9546173B2 (Novartis AG, priority 2012, dated 2017).

The molecules below were run against activated ERK2 (Homo sapiens (Human), UniProt P28482) (assay: Activated ERK2 kinase assay (AlphaScreen, ERKtide peptide phosphorylation)). Conditions: […] ERK2, 200 nM ERKtide peptide, 35 μM ATP, 30 min preincubation; read-out: ERK2 IC50.
Format: biochemical

Chain of activated ERK2 (P28482 whole entry): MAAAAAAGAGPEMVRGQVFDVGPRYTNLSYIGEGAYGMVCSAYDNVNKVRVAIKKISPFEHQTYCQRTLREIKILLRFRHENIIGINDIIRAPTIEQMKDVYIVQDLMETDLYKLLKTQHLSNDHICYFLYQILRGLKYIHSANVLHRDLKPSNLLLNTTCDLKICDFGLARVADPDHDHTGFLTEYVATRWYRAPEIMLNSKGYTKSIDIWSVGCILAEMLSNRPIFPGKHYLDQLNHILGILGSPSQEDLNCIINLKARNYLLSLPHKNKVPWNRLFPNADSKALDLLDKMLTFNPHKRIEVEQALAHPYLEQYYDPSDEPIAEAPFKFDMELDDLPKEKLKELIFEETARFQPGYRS

Compound | IC50 [nM]
CC1(C)c2cnc(N[C@H]3CC[C@H](C#N)CC3)nc2CN1C(=O)N[C@H](CO)c1ccccc1 [compound 81, 2-(((1r,4S)-4-cyanocyclohexyl)amino)-N-((S)-2-hydroxy-1-phenylethyl)-5,5-dimethyl-5H-pyrrolo[3,4-d]pyrimidine-6(7H)-carboxamide] | 114
CN1CCC(Nc2ncc3c(n2)CN(C(=O)N[C@H](CO)c2ccccc2)C3(C)C)CC1=O (stereo partly drawn) [compound 82, N-((S)-2-hydroxy-1-phenylethyl)-5,5-dimethyl-2-((1-methyl-2-oxopiperidin-4-yl)amino)-5H-pyrrolo[3,4-d]pyrimidine-6(7H)-carboxamide] | 208
CN1CCC(Nc2ncc3c(n2)CN(C(=O)N[C@H](CO)c2ccccc2)C3(C)C)CC1=O (stereo partly drawn) [compound 83, N-((S)-2-hydroxy-1-phenylethyl)-5,5-dimethyl-2-((1-methyl-2-oxopiperidin-4-yl)amino)-5H-pyrrolo[3,4-d]pyrimidine-6(7H)-carboxamide] | 1160
CN1CC(Nc2ncc3c(n2)CN(C(=O)N[C@H](CO)c2ccccc2)C3(C)C)CCC1=O (stereo partly drawn) [compound 84, N-((S)-2-hydroxy-1-phenylethyl)-5,5-dimethyl-2-((1-methyl-6-oxopiperidin-3-yl)amino)-5H-pyrrolo[3,4-d]pyrimidine-6(7H)-carboxamide] | 164
CC1(C)c2cnc(NC3CCC(=O)NC3)nc2CN1C(=O)N[C@H](CO)c1ccccc1 (stereo partly drawn) [compound 85, N-((S)-2-hydroxy-1-phenylethyl)-5,5-dimethyl-2-((6-oxopiperidin-3-yl)amino)-5H-pyrrolo[3,4-d]pyrimidine-6(7H)-carboxamide] | 53
CC1(C)c2cnc(NC3CCCCC3)nc2CN1C(=O)N[C@H](CO)c1ccccc1 [compound 86, (S)-2-(cyclohexylamino)-N-(2-hydroxy-1-phenylethyl)-5,5-dimethyl-5H-pyrrolo[3,4-d]pyrimidine-6(7H)-carboxamide] | 22
Cn1cc(-c2cccc(CNC(=O)N3Cc4nc(NC5CCOCC5)ncc4C3(C)C)c2)cn1 [compound 87, 5,5-dimethyl-N-(3-(1-methyl-1H-pyrazol-4-yl)benzyl)-2-((tetrahydro-2H-pyran-4-yl)amino)-5H-pyrrolo[3,4-d]pyrimidine-6(7H)-carboxamide] | 91
CC1(C)c2cnc(NC3CCOCC3)nc2CN1C(=O)NCc1cccc(C(N)=O)c1 [compound 88, N-(3-carbamoylbenzyl)-5,5-dimethyl-2-((tetrahydro-2H-pyran-4-yl)amino)-5H-pyrrolo[3,4-d]pyrimidine-6(7H)-carboxamide] | 11
CC1(C)c2cnc(NC3CCOCC3)nc2CN1C(=O)NCc1nc(-c2ccc(F)cc2)cs1 [compound 89, N-((4-(4-fluorophenyl)thiazol-2-yl)methyl)-5,5-dimethyl-2-((tetrahydro-2H-pyran-4-yl)amino)-5H-pyrrolo[3,4-d]pyrimidine-6(7H)-carboxamide] | 131
CC1(CO)c2cnc(NC3CCOCC3)nc2CN1C(=O)NCc1ccccc1 (stereo not shown) [compound 90, N-benzyl-5-(hydroxymethyl)-5-methyl-2-((tetrahydro-2H-pyran-4-yl)amino)-5H-pyrrolo[3,4-d]pyrimidine-6(7H)-carboxamide] | 4020
C[C@@H](NC(=O)N1Cc2nc(NC3CCOCC3)ncc2C1(C)CO)c1ccccc1 (stereo partly drawn) [compound 91, 5-(hydroxymethyl)-5-methyl-N-((R)-1-phenylethyl)-2-((tetrahydro-2H-pyran-4-yl)amino)-5H-pyrrolo[3,4-d]pyrimidine-6(7H)-carboxamide] | 657
C[C@@H](NC(=O)N1Cc2nc(NC3CCOCC3)ncc2C1(C)CO)c1ccccc1 (stereo partly drawn) [compound 92, 5-(hydroxymethyl)-5-methyl-N-((R)-1-phenylethyl)-2-((tetrahydro-2H-pyran-4-yl)amino)-5H-pyrrolo[3,4-d]pyrimidine-6(7H)-carboxamide] | 1530
O=C(NCCc1ccccc1)N1Cc2nc(NC3CCOCC3)ncc2C12CCC2 [compound 96, N-phenethyl-2′-((tetrahydro-2H-pyran-4-yl)amino)spiro[cyclobutane-1,5′-pyrrolo[3,4-d]pyrimidine]-6′(7′H)-carboxamide] | 90
O=C(Nc1cnn(Cc2ccccc2F)c1)N1Cc2nc(NC3CCOCC3)ncc2C12CCC2 [compound 99, N-(1-(2-fluorobenzyl)-1H-pyrazol-4-yl)-2′-((tetrahydro-2H-pyran-4-yl)amino)spiro[cyclobutane-1,5′-pyrrolo[3,4-d]pyrimidine]-6′(7′H)-carboxamide] | 12
CNC(=O)c1cccc(CNC(=O)N2Cc3nc(NC4CCOCC4)ncc3C2(C)C)c1 [compound 100, 5,5-dimethyl-N-(3-(methylcarbamoyl)benzyl)-2-((tetrahydro-2H-pyran-4-yl)amino)-5H-pyrrolo[3,4-d]pyrimidine-6(7H)-carboxamide] | 45
CN(C)C(=O)c1cccc(CNC(=O)N2Cc3nc(NC4CCOCC4)ncc3C2(C)C)c1 [compound 101, N-(3-(dimethylcarbamoyl)benzyl)-5,5-dimethyl-2-((tetrahydro-2H-pyran-4-yl)amino)-5H-pyrrolo[3,4-d]pyrimidine-6(7H)-carboxamide] | 492

Compound | IC50 [nM]
CNC(=O)C1CC(NC(=O)N2Cc3nc(NC4CCOCC4)ncc3C2(C)C)CN(Cc2ccccc2F)C1 (stereo not shown) [compound 102, N-(1-(2-fluorobenzyl)-5-(methylcarbamoyl)piperidin-3-yl)-5,5-dimethyl-2-((tetrahydro-2H-pyran-4-yl)amino)-5H-pyrrolo[3,4-d]pyrimidine-6(7H)-carboxamide] | 2300
CNC(=O)C1CC(NC(=O)N2Cc3nc(NC4CCOCC4)ncc3C2(C)C)CN(Cc2cccc(Cl)c2)C1 (stereo not shown) [compound 103, N-(1-(3-chlorobenzyl)-5-(methylcarbamoyl)piperidin-3-yl)-5,5-dimethyl-2-((tetrahydro-2H-pyran-4-yl)amino)-5H-pyrrolo[3,4-d]pyrimidine-6(7H)-carboxamide] | 9190
CC1(C)c2cnc(NC3CCOCC3)nc2CN1C(=O)N[C@@H]1CCN(Cc2cccc(Cl)c2)C1 [compound 104] | 37
CC1(C)c2cnc(NC3CCOCC3)nc2CN1C(=O)Nc1cnn(Cc2ccccc2F)c1 [compound 105, N-(1-(2-fluorobenzyl)-1H-pyrazol-4-yl)-5,5-dimethyl-2-((tetrahydro-2H-pyran-4-yl)amino)-5H-pyrrolo[3,4-d]pyrimidine-6(7H)-carboxamide] | 39
CC1(C)c2cnc(NC3CCOCC3)nc2CN1C(=O)NCc1cc(F)cc(S(C)(=O)=O)c1 [compound 107, N-(3-fluoro-5-(methylsulfonyl)benzyl)-5,5-dimethyl-2-((tetrahydro-2H-pyran-4-yl)amino)-5H-pyrrolo[3,4-d]pyrimidine-6(7H)-carboxamide] | 44
CC1(C)c2cnc(NC3CCOCC3)nc2CN1C(=O)NCc1ccc(S(C)(=O)=O)cc1 [compound 108, 5,5-dimethyl-N-(4-(methylsulfonyl)benzyl)-2-((tetrahydro-2H-pyran-4-yl)amino)-5H-pyrrolo[3,4-d]pyrimidine-6(7H)-carboxamide] | 65
CC1(C)c2cnc(NC3CCOCC3)nc2CN1C(=O)NCc1cc(Cl)cc(S(C)(=O)=O)c1 [compound 109, N-(3-chloro-5-(methylsulfonyl)benzyl)-5,5-dimethyl-2-((tetrahydro-2H-pyran-4-yl)amino)-5H-pyrrolo[3,4-d]pyrimidine-6(7H)-carboxamide] | 6
CCCS(=O)(=O)c1cccc(CNC(=O)N2Cc3nc(NC4CCOCC4)ncc3C2(C)C)c1 [compound 110, 5,5-dimethyl-N-(3-(propylsulfonyl)benzyl)-2-((tetrahydro-2H-pyran-4-yl)amino)-5H-pyrrolo[3,4-d]pyrimidine-6(7H)-carboxamide] | 39
CCS(=O)(=O)c1cccc(CNC(=O)N2Cc3nc(NC4CCOCC4)ncc3C2(C)C)c1 [compound 111, N-(3-(ethylsulfonyl)benzyl)-5,5-dimethyl-2-((tetrahydro-2H-pyran-4-yl)amino)-5H-pyrrolo[3,4-d]pyrimidine-6(7H)-carboxamide] | 16
CC1(C)c2cnc(NC3CCOCC3)nc2CN1C(=O)NCc1ccccc1S(C)(=O)=O [compound 112, 5,5-dimethyl-N-(2-(methylsulfonyl)benzyl)-2-((tetrahydro-2H-pyran-4-yl)amino)-5H-pyrrolo[3,4-d]pyrimidine-6(7H)-carboxamide] | 806
Cc1cccc(S(=O)(=O)N2CCC[C@@H](NC(=O)N3Cc4nc(NC5CCOCC5)ncc4C3(C)C)C2)c1 [compound 113, (R)-5,5-dimethyl-2-((tetrahydro-2H-pyran-4-yl)amino)-N-(1-(m-tolylsulfonyl)piperidin-3-yl)-5H-pyrrolo[3,4-d]pyrimidine-6(7H)-carboxamide] | 45
Cc1ccc(S(=O)(=O)N2CCC[C@@H](NC(=O)N3Cc4nc(NC5CCOCC5)ncc4C3(C)C)C2)cc1 [compound 114, (R)-5,5-dimethyl-2-((tetrahydro-2H-pyran-4-yl)amino)-N-(1-tosylpiperidin-3-yl)-5H-pyrrolo[3,4-d]pyrimidine-6(7H)-carboxamide] | 176
C[C@@H](NC(=O)N1Cc2nc(NC3CCOCC3)ncc2C1(C)C)c1cc(F)cc(S(C)(=O)=O)c1 [compound 115, (R)-N-(1-(3-fluoro-5-(methylsulfonyl)phenyl)ethyl)-5,5-dimethyl-2-((tetrahydro-2H-pyran-4-yl)amino)-5H-pyrrolo[3,4-d]pyrimidine-6(7H)-carboxamide] | 2
C[C@H](NC(=O)N1Cc2nc(NC3CCOCC3)ncc2C1(C)C)c1cc(F)cc(S(C)(=O)=O)c1 [compound 116, (S)-N-(1-(3-fluoro-5-(methylsulfonyl)phenyl)ethyl)-5,5-dimethyl-2-((tetrahydro-2H-pyran-4-yl)amino)-5H-pyrrolo[3,4-d]pyrimidine-6(7H)-carboxamide] | 457
CC1(C)c2cnc(NC3CCOCC3)nc2CN1C(=O)N[C@H](CO)c1cccc(S(C)(=O)=O)c1 [compound 117, (S)-N-(2-hydroxy-1-(3-(methylsulfonyl)phenyl)ethyl)-5,5-dimethyl-2-((tetrahydro-2H-pyran-4-yl)amino)-5H-pyrrolo[3,4-d]pyrimidine-6(7H)-carboxamide] | 7
